Laboratory results as given in patent US9427433B2, “Methods and compositions for enhancing fertility and/or inhibiting pregnancy failure and restoring glucose tolerance” (Queen's University at Kingston, priority 2011, dated 2016).

Columns and labels:
[1] = test system: uteri of diabetic NOD mice; assay: Uterodome maturation (scanning electron microscopy) and uterine LIF Western blot; format: in vivo, mouse
Protocol: Using ice-cold sterile glass Dounce-tissue homogenizer, uterine samples collected from virgin and pregnant normoglycemic and diabetic NOD mice were homogenized in 3 volumes of the provided 1× homogenization buffer [Cytosolic and Nuclear Extraction Buffer Kit (Biovision Inc., CA, USA)] as per the manufacturer's instructions. Homogenized samples were centrifuged at 4° C. for 5 minutes at 16,000 g. Supernatants, referred to as cytosolic extracts, were immediately transferred into a clean pre-chilled tube kept on ice. Extraction of nuclear proteins from the remaining insoluble (pellet) fractions followed using ice-cold Nuclear Extraction Buffer Mix according to the supplier's instructions. Protein content of the extracted cytosolic and nuclear fractions was determined by Bradford assay. Extracted protein samples were aliquoted and stored at −80° C. for further analyses.
Mouse uterine cytosolic and nuclear proteins were resolved on 6 or 8% (w/v) Tris-SDS denaturing polyacrylamide gels in 1× sample loading buffer (150 mM sodium chloride, 1.0% Triton X-100 and 50 mM Tris, pH 8.0). Urea (8M) was added to the Tris-based SDS-PAGE for the detection of MUC1. […] Background-corrected intensities of Western blot protein bands on scanned films were processed using Image J. Data were expressed as means±SEM. GAPDH (detected as a band of approximately 37 kDa) was used as an internal loading control. […]

[2] = test system: diabetic and prediabetic mice; assay: Body weight in diabetic and prediabetic NOD mice; format: in vivo, mouse; settings: throughout the study period; FIG. 19A
Protocol: Fifty four NOD mice at the prediabetic and early diabetic stages were carefully selected to match the criteria of being 2 standard deviation heavier in body weight than their age-matched normoglycemic control mice and having blood glucose value of >14.9 mM/1 during the glucose tolerance test. The selected mice were 9 weeks old and were treated with 0.1 mg/kg q2d of tacrolimus (Prograf (5 mg/ml), Astellas) subcutaneously administered in 0.2 ml saline for three weeks after which animals were mated to males of the same strain (See FIG. 1). Vehicle (0.2 ml saline, s.q.) treated hyperglycemic NOD female mice were allowed two weeks in diabetes before they were mated to males of the same strain. Facial (mandibular) venous blood samples were collected from treated animals at 24 and 48 hours between injections and at pregnancy days 0.5, 2.5, 4.5, 6.5, 8.5, 10.5, 12.5, 14.5, 16.5 and 18.5 respectively following a standard procedure for facial bleed in mice (Golde et al Lab Anim (NY) 2005 34:39-43).

C=CC[C@@H]1/C=C(\C)C[C@H](C)C[C@H](OC)[C@H]2O[C@@](O)(C(=O)C(=O)N3CCCC[C@H]3C(=O)O[C@H](/C(C)=C/[C@@H]3CC[C@@H](O)[C@H](OC)C3)[C@H](C)[C@@H](O)CC1=O)[C@H](C)C[C@@H]2OC [tacrolimus]
uterine LIF protein expression (Western blot) ([1]; days 4.5 and 6.5 postcoitum): induced LIF protein expression | maturation of uterodomes at implantation sites ([1]; pregnancy day 4.5): inducing maturation of uterodomes | body weight gain [2]: maintained normal body weight gain
